Assay results taken from patent publication US10899723B2, “Heterocyclic containing cyclopropyl FXR modulators” (Hepagene Therapeutics (HK) Limited, priority 2016, dated 2021).

Experiments:
FXR = biological target: T1, FXR (Homo sapiens, UniProt Q96RI1); assay: FXR Transactivation Assay (pBIND-FXR / pGL4.35 luciferase reporter in HEK293T); format: cell-based; conditions: HEK293T cells
T1 construct: expressed in transfected cells; host or cells: HEK293T
T1 sequence (Q96RI1 1-486): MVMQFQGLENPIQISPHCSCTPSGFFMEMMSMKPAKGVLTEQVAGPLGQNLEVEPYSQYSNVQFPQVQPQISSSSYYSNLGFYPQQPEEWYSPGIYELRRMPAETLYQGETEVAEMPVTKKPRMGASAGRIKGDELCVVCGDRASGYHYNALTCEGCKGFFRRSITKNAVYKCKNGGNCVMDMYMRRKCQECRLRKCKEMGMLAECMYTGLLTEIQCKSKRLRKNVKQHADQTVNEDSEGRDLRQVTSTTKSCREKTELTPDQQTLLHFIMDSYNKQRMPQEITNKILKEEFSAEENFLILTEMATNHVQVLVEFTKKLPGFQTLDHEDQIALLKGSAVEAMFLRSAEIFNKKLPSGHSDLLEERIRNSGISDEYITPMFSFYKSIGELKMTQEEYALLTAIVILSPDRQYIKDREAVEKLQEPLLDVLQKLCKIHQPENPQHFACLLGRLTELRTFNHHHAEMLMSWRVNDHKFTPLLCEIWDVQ
Method: FXR Transactivation Assay
pGL4.35 [luc2P/9XGAL4 UAS/Hygro]
DMEM medium, high glucose
Fetal Bovine Serum (FBS, heat-inactivated)
Penicillin-Streptomycin (10000 U/ml, 100 ml)
DMEM, High Glucose, HEPES, no Phenol Red
Opti-MEM® I Reduced Serum Medium
Steady-Glo™ Luciferase Assay System
TransIT-293 Transfection Reagent
GW4064 as a positive control
(§1) • 1. Hek293T cells were plated at 1.1*10^6/ml into a 100 mm dish. • 2. Cells were transfected with 8.4 μg of pBind-FXR, 1.26 μg of the reporter vector pGL4.35 (Promega). Cells were incubated at 37° C. under 5% CO2 atmosphere. • 3. All of compounds were 3-fold serial diluted from 10 mM stock for 10 doses in DMSO. • 4. Transfer compound dilutions into 384 well assay plates using liquid workstation. • 5. Seed 25 ul HEK293T cells into 384 well assay plate (prepared step 4) at 0.6*10^5/ml. Cells were incubated at 37° C. under 5% CO2 atmosphere overnight. • 6. Add 25 ul steady-Glo™ Luciferase Assay Reagent into each well of 384-well assay plate. • 7. Record the luminescence value on Envision 2104 plate reader. • 8. Calculate EC50 by fitting % Activity values and log of compound concentrations to nonlinear regression (dose response−variable slope) with Graphpad 5.0. FXR Coactivator Assay Reagents: LanthaScreen™ TR-FRET Farnesoid X Receptor Coactivator Assay GW4064 as a positive control Process: • 1. All of compounds were 3-fold serial diluted from 10 mM stock for 10 doses in DMSO. • 2. Dilute each 100× agonist serial dilution to 2× using Complete Coregulator buffer G. • 3. Transfer 10 μl of each of the 2× agonist serial dilutions to 384 well assay plates. • 4. […] Incubate at room temperature protected from light. • 7. Read the plate at wavelengths of 520 nm and 495 nm on Envision 2104 plate reader. • 8. Calculate the TR-FRET ratio by dividing the emission signal at 520 nm by the emission signal at 495 nm. • 9. Calculate EC50 by fitting % Activity values and log of compound concentrations to nonlinear regression (dose response−variable slope) with Graphpad 5.0.

FXR-LBD = biological target: T2, FXR-LBD (Homo sapiens, UniProt Q96RI1); assay: FXR Coactivator Assay (LanthaScreen TR-FRET); format: biochemical
T2 construct: Add 5 μl of 4×FXR-LBD to 384 well assay plates; purchased
T2 sequence (Q96RI1 262-486 limits assumed): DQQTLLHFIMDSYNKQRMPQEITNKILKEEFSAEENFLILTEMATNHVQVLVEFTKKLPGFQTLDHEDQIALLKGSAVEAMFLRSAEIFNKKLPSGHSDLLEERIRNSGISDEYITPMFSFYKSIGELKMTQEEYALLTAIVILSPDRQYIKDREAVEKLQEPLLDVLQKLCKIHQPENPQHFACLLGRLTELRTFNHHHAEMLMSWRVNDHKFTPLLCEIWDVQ
Method: as §1

| EC50 (FXR) | EC50 (FXR-LBD) | SMILES |
| --- | --- | --- |
| 10 to 100 nM | 10 to 100 nM | CC(C)c1onc(-c2c(Cl)cccc2Cl)c1COc1ccc(C2CC2(C)c2cncc(C(=O)O)c2)c(Cl)c1 (single isomer, unassigned) [IV-05-1, 5-[2-(2-Chloro-4-[[3-(2,6-dichlorophenyl)-5-(propan-2-yl)-1,2-oxazol-4-yl]methoxy]phenyl)-1-methylcyclopropyl] pyridine-3-carboxylic Acid] |
| 101 to 400 nM | 10 to 100 nM | CC(C)c1onc(-c2c(Cl)cccc2Cl)c1COc1ccc(C2CC2(C)c2cncc(C(=O)O)c2)c(Cl)c1 (single isomer, unassigned) [IV-05-2, 5-[2-(2-Chloro-4-[[3-(2,6-dichlorophenyl)-5-(propan-2-yl)-1,2-oxazol-4-yl]methoxy]phenyl)-1-methylcyclopropyl] pyridine-3-carboxylic Acid] |
| 101 to 400 nM | 10 to 100 nM | N#CC1(c2ccc(OCc3c(-c4c(Cl)cccc4Cl)noc3C3CC3)cc2Cl)CC1c1cccc(C(=O)O)c1 (single isomer, unassigned) [VII-03-1, 3-[2-(2-Chloro-4-[[5-cyclopropyl-3-(2,6-dichlorophenyl)-1,2-oxazol-4-yl]methoxy]phenyl)-2-cyanocyclopropyl] benzoic Acid] |
| 101 to 400 nM | 10 to 100 nM | CC(C)c1onc(-c2c(Cl)cccc2Cl)c1COc1ccc(C2CC2(C#N)c2cccc(C(=O)O)c2)c(Cl)c1 (stereo not drawn) [Compound V-02] |
| 401 to 5000 nM | 101 to 400 nM | CC(C)c1onc(-c2c(Cl)cccc2Cl)c1COc1ccc(C2CC2(C)c2ccc(C(=O)O)cc2)c(Cl)c1 (stereo not drawn) [IV-01] |
| 101 to 400 nM | 10 to 100 nM | CC(C)c1onc(-c2c(Cl)cccc2Cl)c1COc1ccc(C2CC2(C)c2cccc(C(=O)O)c2)c(Cl)c1 (stereo not drawn) [IV-02] |
| 101 to 400 nM | 10 to 100 nM | CC1(c2cccc(C(=O)O)c2)CC1c1ccc(OCc2c(-c3c(Cl)cccc3Cl)noc2C2CC2)cc1Cl (stereo not drawn) [IV-03] |
| 10 to 100 nM | 10 to 100 nM | CC(C)c1onc(-c2c(Cl)cccc2Cl)c1COc1ccc(C2CC2(C)c2cncc(C(=O)O)c2)c(Cl)c1 (stereo not drawn) [IV-05, 5-[2-(2-Chloro-4-[[3-(2,6-dichlorophenyl)-5-(propan-2-yl)-1,2-oxazol-4-yl]methoxy]phenyl)-1-methylcyclopropyl] pyridine-3-carboxylic Acid] |
| 10 to 100 nM | 10 to 100 nM | CC1(c2cncc(C(=O)O)c2)CC1c1ccc(OCc2c(-c3c(Cl)cccc3Cl)noc2C2CC2)cc1Cl (stereo not drawn) [IV-06, 5-[2-(2-Chloro-4-[[5-cyclopropyl-3-(2,6-dichlorophenyl)-1,2-oxazol-4-yl]methoxy]phenyl)-1-methylcyclopropyl] pyridine-3-carboxylic Acid] |
| 101 to 400 nM | 10 to 100 nM | COc1cc(C(=O)O)cc2sc(C3(C)CC3c3ccc(OCc4c(-c5c(Cl)cccc5Cl)noc4C4CC4)cc3Cl)nc12 (stereo not drawn) [IV-15, 2-[2-(2-Chloro-4-[[5-cyclopropyl-3-(2,6-dichlorophenyl)-1,2-oxazol-4-yl]methoxy]phenyl)-1-methylcyclopropyl]-4-methoxy-1,3-benzothiazole-6-carboxylic Acid] |
| 101 to 400 nM | 10 to 100 nM | CC(C)c1onc(-c2c(Cl)cccc2Cl)c1COc1ccc(C2CC2(C)c2cc(C(=O)O)nn2C(C)C)c(Cl)c1 (stereo not drawn) [IV-20] |
| 101 to 400 nM | 10 to 100 nM | CC(C)c1onc(-c2c(Cl)cccc2Cl)c1COc1ccc(C2(C)CC2c2ccc(C(=O)O)cc2)c(Cl)c1 (stereo not drawn) [VI-01, 4-(2-(2-Chloro-4-((3-(2,6-dichlorophenyl)-5-isopropylisoxazol-4-yl)methoxy)phenyl)-2-methylcyclopropyl) benzoic Acid] |
| 10 to 100 nM | 10 to 100 nM | CC(C)c1onc(-c2c(Cl)cccc2Cl)c1COc1ccc(C2(C)CC2c2cccc(C(=O)O)c2)c(Cl)c1 (stereo not drawn) [VI-02] |
| 10 to 100 nM | 10 to 100 nM | CC(C)c1onc(-c2c(Cl)cccc2Cl)c1COc1ccc(C2(C)CC2c2cncc(C(=O)O)c2)c(Cl)c1 (stereo not drawn) [VI-04, 5-[2-(2-Chloro-4-[[3-(2,6-dichlorophenyl)-5-(propan-2-yl)-1,2-oxazol-4-yl]methoxy]phenyl)-2-methylcyclopropyl] pyridine-3-carboxylic Acid] |
| 10 to 100 nM | 10 to 100 nM | CC1(c2ccc(OCc3c(-c4c(Cl)cccc4Cl)noc3C3CC3)cc2Cl)CC1c1cncc(C(=O)O)c1 (stereo not drawn) [VI-05] |
| 401 to 5000 nM | 10 to 100 nM | CC(C)c1onc(-c2c(Cl)cccc2Cl)c1COc1ccc(C2(C#N)CC2c2ccc(C(=O)O)cc2)c(Cl)c1 (stereo not drawn) [VII-01] |
| 101 to 400 nM | 10 to 100 nM | CC(C)c1onc(-c2c(Cl)cccc2Cl)c1COc1ccc(C2(C#N)CC2c2cccc(C(=O)O)c2)c(Cl)c1 (stereo not drawn) [VII-02, 3-[2-(2-Chloro-4-[[3-(2,6-dichlorophenyl)-5-(propan-2-yl)-1,2-oxazol-4-yl]methoxy]phenyl)-2-cyanocyclopropyl] benzoic Acid] |
| 10 to 100 nM | 10 to 100 nM | N#CC1(c2ccc(OCc3c(-c4c(Cl)cccc4Cl)noc3C3CC3)cc2Cl)CC1c1cccc(C(=O)O)c1 (stereo not drawn) [VII-03, 3-[2-(2-Chloro-4-[[5-cyclopropyl-3-(2,6-dichlorophenyl)-1,2-oxazol-4-yl]methoxy]phenyl)-2-cyanocyclopropyl] benzoic Acid] |
